In US20070155780A1, “Stabilized composition containing 4-amino-5-chloro-n-[(1r, 3r, 5s)-8-methyl-8-azabicyclo[3.2.1]oct-3-y1]-2-[1-methylbut-2-ynyloxy]benzamide” (priority 2004, published 2007):

Test: Compatibility test of the active ingredient with pharmaceutical additives (storage, HPLC)
Format: physicochemical
Conditions: 60° C., relative humidity 75%, one week
Description: Specifically, 4-amino-5-chloro-N-[(1R,3r,5S)-8-methyl-8-azabicyclo[3.2.1]oct-3-yl]-2-[(1S)-1-methylbut-2-ynyloxy]benzamide was admixed with various pharmaceutical additives in weight proportions in Table 2, the resulting compositions were weighed in transparent glass bottles, and were stored at 60° C., relative humidity of 75% for one week while keeping the lid open. Various fillers, disintegrators, binders, lubricants, and others were used as the pharmaceutical additives. As a control, 4-amino-5-chloro-N-[(1R,3r,5S)-8-methyl-8-azabicyclo[3.2.1]oct-3-yl]-2-[(1S)-1-methylbut-2-ynyloxy]benzamide alone was weighed in a transparent glass bottle and was stored under the above-mentioned conditions. The samples before and after storage were evaluated using high-performance liquid chromatography (HPLC). The stabilities of the samples were evaluated based on the total amount of decomposition products (%), the amount (%) of main decomposition product at a retention time (RRT) of 1.37, and the residual ratio of content (%) of the active ingredient after storage. […] Total amount of decomposition products (%)=Total sum of the amounts of individual decomposition products Residual ratio of content (%)=[(Content after storage)/(Content before storage)]×100 (HPLC condition)
The respective samples before and after storage were mixed with an extraction medium, stirred for sixty minutes, and centrifuged at 3000 rpm for fifteen minutes. The resulting supernatants were assayed by liquid chromatography to thereby determine the amounts of decomposition products and the content of the active ingredient. • Extraction medium: 30% by volume aqueous solution of acetonitrile • Detector: Ultraviolet absorptiometer • Mobile phase A: Mixture of water/acetonitrile/(sodium perchlorate monohydrate)/(perchloric acid) (900:100:7:1, V/V/W/V) • Mobile phase B: Mixture of acetonitrile/water/(sodium perchlorate monohydrate)/(perchloric acid) (900:100:7:1, V/V/W/V) • Column: Stainless steel tube having an inner diameter of 4.6 mm and a length of 15 cm, charged with 3-μm octadecylsilylated silica gel for liquid chromatography • Column temperature: Constant temperature around 40° C.

SMILES: CC#C[C@H](C)Oc1cc(N)c(Cl)cc1C(=O)NC1CC2CCC(C1)N2C (stereo partly drawn) [the active ingredient, 4-amino-5-chloro-N-[(1R,3r,5S)-8-methyl-8-azabicyclo[3.2.1]oct-3-yl]-2-[(1S)-1-methylbut-2-ynyloxy]benzamide]
- Decomposition on storage, in words (compared within additive class or with control): no decomposition product
- Amount of main decomposition product at RRT = 1.37 (%) (active ingredient admixed with additive (additive rate 100, 50 or 15 to the active ingredient), lid open, HPLC external standard method): 0.00%
- Residual ratio of content (%) (active ingredient admixed with additive, lid open, content after/before storage x100): 99.6%
- Total amount of decomposition products (%) (active ingredient admixed with additive, lid open, sum of individual decomposition products): 0.00%
